# Test results: patent US10301282B2, “Polymorphic form X of nilotinib dihydrochloride hydrate” (Cipla Limited, priority 2015, dated 2019)
# Counter-ions that a name gives are not always drawn. Like-named read-outs stand apart in the source and are kept apart here.
# Assays:
# [1] = Hygroscopicity; assay type: physicochemical
# [2] = Intrinsic dissolution study in 0.1 N HCl; assay type: physicochemical; conditions: at 15 minutes time interval, conventional intrinsic dissolution assembly
# Method: Intrinsic dissolution studies were conducted on nilotinib dihydrochloride Form X and nilotinib monohydrochloride monohydrate in 0.1 N HCl using a conventional intrinsic dissolution assembly.
# [3] = as described in U.S. Pat. No. 8,163,904; cited from earlier work
# [4] = as described in U.S. Pat. No. 8,163,904; cited from earlier work; remark: listed apart in the source
smiles,measurement,setting,value
"Cc1cn(-c2cc(NC(=O)c3ccc(C)c(Nc4nccc(-c5cccnc5)n4)c3)cc(C(F)(F)F)c2)cn1 [nilotinib dihydrochloride Form X, nilotinib dihydrochloride hydrate]",hygroscopicity,[1],substantially non-hygroscopic
same,release (intrinsic dissolution),[2]; dihydrochloride hydrate,109%
"Cc1cn(-c2cc(NC(=O)c3ccc(C)c(Nc4nccc(-c5cccnc5)n4)c3)cc(C(F)(F)F)c2)cn1 [Form B, nilotinib hydrochloride monohydrate]",hygroscopicity,[3],hygroscopic
same,solubility in water,[4],very slightly soluble in water
Cc1cn(-c2cc(NC(=O)c3ccc(C)c(Nc4nccc(-c5cccnc5)n4)c3)cc(C(F)(F)F)c2)cn1 [nilotinib monohydrochloride monohydrate],release (intrinsic dissolution),[2]; monohydrochloride monohydrate,114%
